Active and inactive are the calls of the source.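 The calls were made as follows: active = caspase luminescence falls with dose and the half-maximal concentration AC50 from the fitted curve is at or below a set limit; inconclusive = flat fit at 30 to 70% signal loss, or invalid fit; inactive = AC50 above the limit, or signal rises instead.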
What follows are compounds tested on INS-1E cytokine-induced caspase-3/7, Caspase-Glo luminescence, 48 h (assay: inhibitors of cytokine-induced caspase-3/7 activity, dose response, orthogonal assay for beta-cell apoptosis protection project, INS-1E rat cells, luminescence (AID 463206)).
With Cc1ccc(S(=O)(=O)NCc2ccncc2)c(C)c1C the AC50 was > 26 µM (inactive). With Oc1c(CN2CCN(c3ccccc3)CC2)cc(Br)c2cccnc12 the AC50 was > 26 µM (inactive). With Clc1ccccc1Nc1nnc(-c2ccncc2)s1 the AC50 was > 26 µM (inactive). In the case of CCc1ccc(S(=O)(=O)/N=C2/C=C(Sc3ncn[nH]3)C(=O)c3ccccc32)cc1, the AC50 is reported as > 26 µM (inactive). For Cc1cc(C(=O)N/N=C/c2cc(Br)cc(Br)c2OC(=O)c2cccc(F)c2)n[nH]1, the AC50 was > 26 µM (inactive). Compound Cc1cc(-c2n[nH]c(=S)n2/N=C/C(Br)=C/c2ccccc2)n[nH]1 has an AC50 of 12.4 µM. With Cc1ccc(NS(=O)(=O)c2ccc(Cl)c(NC(=S)NC(=O)C3CCCCC3)c2)cc1Cl the AC50 was > 26 µM (inactive). In the case of Cc1c(C)c2cccnc2c2ncccc12, the AC50 is reported as > 26 µM (inactive). In the case of Cc1ccc(S(=O)(=O)N2CCN(c3ncnc4sccc34)CC2)cc1, the AC50 is reported as > 26 µM (inactive). For Cc1[nH]n(-c2ccccc2)c(=O)c1/C=N/Nc1nncc(-c2ccccc2)n1, the AC50 was > 26 µM (inactive). With COC(=O)c1ccc(NC(=O)c2cccnc2)cc1 the AC50 was > 26 µM (inactive). For COc1ccc(/C(C)=N/NC(=O)c2cccc(S(=O)(=O)N3CCCC3)c2)c(O)c1, the AC50 was > 26 µM (inactive). CC1=C(C#N)C(C(F)(F)F)(C(F)(F)F)N=C(c2ccco2)N1 was tested, and the AC50 was > 26 µM (inactive). C#CCOCCOCCOCCNc1nc(N2CCN(C(=O)CCCCCCCCCCNC(=O)[C@@H](CCSC)n3cc(CCO)nn3)CC2)nc(N2CCN(C(=O)CCCCCCCCCCNC(=O)[C@H]([C@@H](C)CC)n3cc(CCCCCN)nn3)CC2)n1 was tested, and the AC50 was > 26 µM (inactive). COC(=O)c1ccc2c(c1)C(C)(C)C(/C=C/c1ccc(OC)c(OC)c1OC)=[N+]2C was tested, and the AC50 was > 26 µM (inactive). COc1cc(C(=O)Oc2ccccc2/C=N/NC(=O)c2ccc(C)c(Cl)c2)cc(OC)c1OC was tested, and the AC50 was > 26 µM (inactive). In the case of Cc1ccc(C)c(N=Nc2ccc(O)c3ncccc23)c1, the AC50 is reported as > 26 µM (inactive). For COC(=O)c1c(C)oc2ccc(N(C(=O)c3ccncc3)S(=O)(=O)c3ccc(C)cc3C)cc12, the AC50 was > 26 µM (inactive). CCN1c2ccccc2NC2N=C(OC)C(c3ccccc3)C21 (configuration not stated) was tested, and the AC50 was > 26 µM (inactive). For COc1ccc(C(NC(C)=O)c2cc(Cl)c3cccnc3c2O)cc1 (configuration not stated), the AC50 was > 26 µM (inactive). O=S(=O)(c1ccc(Cl)cc1)N1CCN(c2ncnc3sccc23)CC1 was tested, and the AC50 was > 26 µM (inactive). For Cc1cc(C)c(OCC(O)CNC(C)(C)C)c(C)c1 (configuration not stated), the AC50 was > 26 µM (inactive). In the case of Cc1ccc2c(c1)[nH]c1c(N3CCN(Cc4ccccc4)CC3)ncnc12, the AC50 is reported as > 26 µM (inactive). NC(=S)N/N=C/c1ccccc1O was tested, and the AC50 was > 26 µM (inactive). Cn1nc(-c2ccc(Cl)cc2)nc2c(=O)n(C)c(=O)nc1-2 was tested, and the AC50 was > 26 µM (inactive). For O=C1C(=O)c2ccccc2-c2ccccc21, the AC50 was > 26 µM (inactive). In the case of O=C(Cc1cccs1)N/N=C\c1ccc([N+](=O)[O-])s1, the AC50 is reported as > 26 µM (inactive). Cc1cc(C)nc(N/N=C/c2cc(Br)ccc2O)n1 was tested, and the AC50 was > 26 µM (inactive). With CCN(CC)c1ccc(/C=N/NC(=O)Cc2cccs2)c(O)c1 the AC50 was > 26 µM (inactive). For O=C(OCn1ncc(Br)c(Br)c1=O)c1ccccc1Cl, the AC50 was > 26 µM (inactive). With CCc1c(C)sc2nc(C(C)C)nc(SCC(=O)N3CCc4ccccc4C3)c12 the AC50 was > 26 µM (inactive). In the case of COc1ccccc1N1CCN(Cc2cc(Br)c(O)c3ncccc23)CC1, the AC50 is reported as > 12 µM (inactive). For CC1=CC(C)(C)N(C(=O)CSc2nnc(-c3ccc(C)cc3)o2)c2ccc(C)cc21, the AC50 was > 12 µM (inactive). With CCOC(=O)c1cnc(-n2nc(C)cc2C)nc1Nc1ccc(N(C)C)cc1 the AC50 was > 26 µM (inactive). For COc1ccc(C(=O)NN/C(C)=C/C(=O)C(F)(F)C(F)(F)C(F)(F)F)cc1, the AC50 was > 26 µM (inactive). For CCN1CCN(c2ccc(S(=O)(=O)N3CCCCC3)cc2NC(=O)c2ccc([N+](=O)[O-])s2)CC1, the AC50 was > 26 µM (inactive). In the case of COc1ccc(Cl)c(Cn2c(NCc3ccco3)nc3c2c(=O)n(C)c(=O)n3C)c1, the AC50 is reported as > 26 µM (inactive). With Cc1cc(C)n(-c2nc(NCCO)c3c4c(sc3n2)CCCC4)n1 the AC50 was > 26 µM (inactive). For COc1ccc(Cn2cc3c(-c4ccc(F)cc4)nnc-3c3cc(OC)c(OC)cc32)cc1, the AC50 was 12.9 µM. For O=C(Nc1cccc(NC(=O)c2ccccc2Cl)c1)c1ccc([N+](=O)[O-])o1, the AC50 was > 26 µM (inactive). In the case of CCCCCCCCCCCCCCCC[N+](C)(C)C, the AC50 is reported as > 26 µM (inactive). In the case of NNc1ncnc2scc(-c3ccc(Cl)cc3)c12, the AC50 is reported as > 26 µM (inactive). O=C(c1cc(COc2cccc(C(F)(F)F)c2)on1)N1CCC(c2ccncc2)CC1 was tested, and the AC50 was > 26 µM (inactive). With COc1ccc(C)cc1Nc1n[n+](-c2ccccc2)c(-c2ccc(OC)c(OC)c2OC)s1 the AC50 was > 26 µM (inactive). For COC(=O)c1c(C)oc2ccc(N(C(=O)c3ccncc3)S(=O)(=O)c3ccc4ccccc4c3)cc12, the AC50 was > 26 µM (inactive). For CC1=NN(c2ccc(C)c(C)c2)C(=O)/C1=C\C=C\c1ccc([N+](=O)[O-])o1, the AC50 was > 26 µM (inactive). In the case of O=C1C(C2=NC(c3ccccn3)C3C(=O)N(c4ccc(OC(F)(F)F)cc4)C(=O)C23)=C(O)c2ccccc21 (configuration not stated), the AC50 is reported as > 26 µM (inactive). Cc1ccc(O)c(/C=N/NC(=O)c2[nH]ncc2Br)c1 was tested, and the AC50 was > 26 µM (inactive). In the case of Brc1ccc(N/N=C(/N=Nc2nn[nH]n2)c2ccccc2)cc1, the AC50 is reported as > 26 µM (inactive). CCN1C/C(=C/c2ccc(OC)c(O)c2)C(=O)/C(=C/c2ccc(OC)c(O)c2)C1 was tested, and the AC50 was > 26 µM (inactive). In the case of O=c1cnnc(N/N=C/c2ccccn2)[nH]1, the AC50 is reported as > 26 µM (inactive). For CCCC[n+]1ccn(C2=C([O-])c3ccccc3C(=O)/C2=N\S(=O)(=O)c2ccc(Cl)cc2)c1, the AC50 was > 26 µM (inactive). In the case of CC(=O)c1c(C)oc2c1C(=O)c1ccccc1C2=O, the AC50 is reported as > 26 µM (inactive). CC(C)CC[n+]1ccn(C2=C([O-])c3ccccc3C(=O)/C2=N\S(=O)(=O)c2ccccc2)c1 was tested, and the AC50 was > 26 µM (inactive). For CCOC(=O)C1CCN(C(=O)c2c(C)oc3c2C(=O)c2ccccc2C3=O)CC1, the AC50 was > 26 µM (inactive). With Cc1cc2cc(CN3C(=O)c4ccccc4C3=O)ccc2n1C the AC50 was > 26 µM (inactive). COc1cccc(N2CCN(c3ncnc4c3[nH]c3ccc(F)cc34)CC2C)c1 (configuration not stated) was tested, and the AC50 was > 26 µM (inactive). COc1ccc(-c2n(Cc3ccccc3)c3ccccc3[n+]2Cc2ccccc2)cc1 was tested, and the AC50 was > 26 µM (inactive). For CC(C)C(=O)NC(=S)/C=C1/N(C)c2ccccc2C1(C)C, the AC50 was > 26 µM (inactive). With CCN(CC)CCNc1ncnc2c1sc1nc(N3CCOCC3)c3c(c12)CC(C)(C)SC3 the AC50 was 23.6 µM. For Cc1cc(C)c2nc(NNC(=O)c3ccc(S(=O)(=O)N4CCCC(C)C4)cc3)sc2c1 (configuration not stated), the AC50 was > 26 µM (inactive). For CCN(CC)S(=O)(=O)c1cc([N+](=O)[O-])ccc1NNC(=O)Nc1ccc(Cl)c(Cl)c1, the AC50 was > 26 µM (inactive). For CC(=O)Nc1ccc(NC2=C/C(=N/S(=O)(=O)c3cccs3)c3ccccc3C2=O)cc1, the AC50 was > 26 µM (inactive). In the case of COc1ccc(C(=O)NCC(=O)N/N=C/c2ccc([N+](=O)[O-])s2)cc1OC, the AC50 is reported as > 26 µM (inactive). For CCC(=O)NC(c1ccc(OC)cc1)c1cc(Cl)c2cccnc2c1O (configuration not stated), the AC50 was > 26 µM (inactive). O=C(c1cnc(N2CCN(c3ccccn3)CC2)c2ccccc12)N1CCN(c2cccc(Cl)c2)CC1 was tested, and the AC50 was > 26 µM (inactive). In the case of N=c1c2c(n(Cc3ccc(Cl)cc3Cl)c3c1CCC3)CCCC2, the AC50 is reported as > 26 µM (inactive). In the case of COc1ccc(C(=O)/C(=C\c2ccco2)N2C=CC=CC2=C(C#N)C#N)cc1, the AC50 is reported as > 26 µM (inactive). In the case of Cc1ccc(C(C)C)c(OCc2nn(CC(=O)c3ccc(OC(F)F)cc3)c3[n+]2CCCCC3)c1, the AC50 is reported as > 26 µM (inactive). CCN1/C(=C/C=C/c2oc3ccc(-c4ccccc4)cc3[n+]2CC)Oc2ccc(-c3ccccc3)cc21 was tested, and the AC50 was > 26 µM (inactive). For CCOc1ccccc1NC(=O)c1nc(S(=O)(=O)Cc2cccc(C)c2)ncc1Cl, the AC50 was > 26 µM (inactive). In the case of Oc1cccc(/C=N/Nc2ccc(Cl)nn2)c1O, the AC50 is reported as > 26 µM (inactive). For Cc1ccc(N2C(=O)CSC2c2cccnc2)c(Cl)c1 (configuration not stated), the AC50 was > 26 µM (inactive). For CC(=O)c1cccc(NS(=O)(=O)c2ccc(N/C=C/C(=O)c3ccc(F)cc3)cc2)c1, the AC50 was > 26 µM (inactive). In the case of O=S1(=O)C=C(Sc2nnc(-c3ccccc3)o2)c2ccccc21, the AC50 is reported as > 26 µM (inactive). CN(C)S(=O)(=O)c1cccc(NC(=S)N/N=C/c2cc(Br)ccc2O)c1 was tested, and the AC50 was > 26 µM (inactive). COc1ccc(NC(=O)/C(Cl)=C(/Cl)S(=O)Cc2ccccc2)cn1 (configuration not stated) was tested, and the AC50 was > 26 µM (inactive). In the case of O=C1CSC(c2cccnc2)N1CC1CC1 (configuration not stated), the AC50 is reported as > 26 µM (inactive). For COc1ccc(S(=O)(=O)Nc2cc(SCC(=O)O)c(O)c3ccccc23)cc1, the AC50 was > 26 µM (inactive). For COc1ccc(/C=N/Nc2cc(C)nc(-n3nc(C)cc3C)n2)cc1, the AC50 was > 26 µM (inactive). Cc1ccc(C(C)C)c(OCC(O)CN2CCc3ccccc3C2)c1 (configuration not stated) was tested, and the AC50 was > 12 µM (inactive). With C/C(=N/NC(=O)c1ccc(C(C)(C)C)cc1)c1ccccn1 the AC50 was > 26 µM (inactive). In the case of O=C(Oc1cccc2cccnc12)c1cccc(N2C(=O)C3C4CCC(C4)C3C2=O)c1 (configuration not stated), the AC50 is reported as > 26 µM (inactive). O=[N+]([O-])c1cc(CN2CCN(c3ccccc3)CC2)c(O)c2ncccc12 was tested, and the AC50 was > 26 µM (inactive). In the case of COC(=O)c1ccc2c(=O)n(-c3ccccc3)c(SCN3C(=O)c4ccccc4C3=O)nc2c1, the AC50 is reported as > 26 µM (inactive). With Cc1ccc(-c2ccc(/C=C3\C(=O)ON=C3c3ccccc3)o2)c([N+](=O)[O-])c1 the AC50 was > 26 µM (inactive). For Cc1ccc(NC(=O)C2=C(c3ccccc3)S(=O)(=O)CCS2(=O)=O)cc1, the AC50 was > 26 µM (inactive). In the case of O=C(Nc1ccc(S(=O)(=O)N2CCOCC2)cc1)c1ccc([N+](=O)[O-])s1, the AC50 is reported as > 26 µM (inactive). In the case of CC(C)(C)c1cc(C=C(C#N)C#N)cc(C(C)(C)C)c1O, the AC50 is reported as > 26 µM (inactive). With CCOc1ccc(-c2cc(C(=O)NCCCn3ccnc3)c3cc(Br)ccc3n2)cc1 the AC50 was > 12 µM (inactive). For C=CCn1c(SCC(=O)c2[nH]c(C)c(C(=O)OCC)c2C)nc2scc(-c3ccc(OC)c(OC)c3)c2c1=O, the AC50 was > 12 µM (inactive). For CCN1CCN(Cc2ccc(NC(=O)c3cc(NC(=O)C(=O)c4c[nH]c5ccccc45)cc(OC)c3)cc2C(F)(F)F)CC1, the AC50 was > 26 µM (inactive).

From PubChem BioAssay AID463206 (Broad Institute, 2010)
